Patent publication US20060110474A1, “Rubrofusarin glycoside-containing composition” (Suntory Limited, priority 2002, published 2006)
“Also recorded” adds a separate entry of the source.

Key:
Assay type in all cases: cell-based
[1] = test system: human hepatoma HepG2 cells; assay: Synergistic effect with precursor L-cystine on intracellular glutathione level (L-cystine free D-MEM); settings: 40 hours, FIG. 4
Protocol: (§1) The activity to increase intracellular glutathione level was determined by use of human hepatoma HepG2 cells. More specifically, HepG2 cells were cultured in RPMI1640 medium and added to a 96-well microplate at a density of 2.5×10^4 cells (100 μl) per well. After the HepG2 cells settled on the wall, 25 μl of each of the aforementioned samples was added and the mixture was cultured in a CO2 incubator for 48 hours. Thereafter, a culture solution was removed and the cells were washed once with phosphate buffered saline (PBS), 25 μl of a PBS solution containing 0.25 mM monochlorobimane was added and the mixture was allowed to stand in the CO2 incubator (37° C.) for 45 minutes. After the mixture was returned to room temperature, 75 μl of distilled water was added to the mixture to disperse it. The fluorescent intensity of the fluorescent substance produced by the reaction between Monochlorobimane and glutathione was measured at 355 nm/460 nm to observe a change in intracellular glutathione content.
Using human hepatoma HepG2 cells, the synergistic effect between rubrofusarin glycoside having the intracellular glutathione increasing activity and a precursor for synthesizing glutathione in vivo was investigated. […] Thereafter, intracellular glutathione levels were measured. […]

[2] = test system: human hepatoma HepG2 cells; assay: Intracellular glutathione level of HepG2 cells (monochlorobimane fluorescence)
Protocol: as §1
(§2) Using human hepatoma HepG2 cells, time-dependent induction effect of rubrofusarin glycoside upon intracellular glutathione level was investigated. The procedure was similar to that of Example 1. Briefly, HepG2 cells were dispensed at a density of 2.5×10^4 cells (100 μl) per well of a microplate and allowed to settle thereto, and then, 25 μl of an evaluation sample diluted to a predetermined concentration in RPMI1640 medium was added. The cells were cultured for 0, 6, 12, 24, and 48 hours. […]
(§3) Using human hepatoma HepG2 cells, dose dependency of the effect of rubrofusarin glycoside upon intracellular glutathione level was investigated. […] After culturing for an additional 48 hours, the intracellular glutathione level was measured to be compared with that of the cells containing no test-compound or that of the cells containing comparative compound, β-naphthoflavone (purchased from Nacalai-tesque) or silibinin (purchased from Sigma Chemical). […]

[3] = test system: human hepatoma HepG2 cells; assay: Cytotoxicity seen in the in-vitro HepG2 cell evaluation system; settings: HepG2, 48 hours, up to 20 μM, compared with β-naphthoflavone
Protocol: as §2, with “hours. As the evaluation sample, use was made of the concentrate (containing 10.2% (w/w) rubrofusarin gentiobioside) of the present invention prepared in accordance with the method shown in Example 4.” for “hours.”
as §3

[4] = test system: human hepatoma HepG2 cells; assay: Protective effect against t-butyl hydroperoxide (rate of surviving cells, WST-1 staining); settings: HepG2, 10 μM in terms of rubrofusarin gentiobioside for 48 hours, then t-BHP 0 to 1 mM for 3 hours; β-naphthoflavone 6 μM; FIG. 3
Protocol: The method was similar to that in Example 5. Briefly, HepG2 cells were dispensed at a density of 2.5×10^4 cells (100 μl) per well of a microplate and allowed to settle thereto, and then, 25 μl of the concentrate diluted in RPMI1640 medium to a final concentration of 10 μM in terms of rubrofusarin gentiobioside was added. After culturing was performed for a further 48 hours, a peroxide, t-butyl hydroperoxide (t-BHP) was added so as to give a final concentration of 0 to 1 mM. The rate of surviving cells after 3 hours relative to that of the cells containing no test compound was compared with those containing comparative compounds, β-naphthoflavone (6 μM) and silibinin (10 μM). The rate of surviving cells was checked by WST-1 staining and calculated based on a control not containing t-BHP as being 100%.

Structure (SMILES)	intracellular glutathione level with L-cystine alone ([1]; L-cystine at predetermined concentrations)	activity to increase intracellular glutathione level (HPLC fraction) ([2]; HepG2, 48 hours culture, serial two-fold dilution, 4 dilution stages)	glutathione increasing activity, dose dependency ([2]; HepG2, 48 hours, final concentration 0 to 20 μM in terms of rubrofusarin gentiobioside, FIG. 2)	intracellular glutathione level, time course ([2]; HepG2, 0, 6, 12, 24, 48 hours, 1.25, 2.5, 5.0 μM in terms of rubrofusarin gentiobioside, relative to negative control = 100%, FIG. 1)	intracellular glutathione level in co-existence of L-cystine ([1]; 10 μM rubrofusarin glycoside plus L-cystine)	cytotoxicity in a high-concentration range [3]	protective effect against t-BHP (rate of surviving cells) [4]
N[C@@H](CSSC[C@H](N)C(=O)O)C(=O)O [L-cystine]	increased as the concentration of L-cystine added increased	–	–	–	–	–	–
COc1cc(O[C@@H]2O[C@H](CO[C@@H]3O[C@H](CO)[C@@H](O)[C@H](O)[C@H]3O)[C@@H](O)[C@H](O)[C@H]2O)c2c(O)c3c(=O)cc(C)oc3cc2c1 [rubrofusarin glycoside, rubrofusarin 6-O-β-gentiobioside]	–	dose dependent and strong	increases in a dose-dependent manner; also recorded: equivalent to that of β-naphthoflavone	increases in a time-dependent manner	synergistically contribute to an increase; also recorded: acted synergistically	lower	protecting HepG2 cells; also recorded: somewhat lower than that of β-naphthoflavone
